Test results taken from patent publication US20070015739A1, “Use of non-antibacterial tetracycline formulations for inhibiting bacterial spores” (priority 2005, published 2007).
“Also recorded” adds a separate entry of the source. Where two headings read alike, the source gives them in different places.

Tests used:
[1] = system: Bacillus cereus ATCC 10987 spores; assay type: cell-based
[2] = system: spores (Bacillus cereus ATCC 10987); assay type: cell-based
[3] = Plasma or serum concentration in humans; conditions: dose of about 10 to about 20 mg/day
B. anthracis spores = conditions: guinea pig, in vivo; cited from earlier work

| Compound | rate of decrease in absorbance in the presence and absence of COL-3 [1] | inhibition of the early phase (initial stages) of germination ([1]; 37° C.) | early germination (Gram stain) [2] | minimum concentration to inhibit outgrowth [2] [μg per ml] | outgrowth into vegetative cells [2] | development of spores into vegetative cells (Gram stain) ([2]; time=40 min) | development of spores into vegetative cells (Gram stain) ([2]; time=60 min) | plasma or serum concentrations [3] | death of infected animals during treatment (B. anthracis spores) |
| --- | --- | --- | --- | --- | --- | --- | --- | --- | --- |
| NC(=O)C1=C(O)C[C@@H]2C[C@@H]3Cc4cccc(O)c4C(=O)C3=C(O)[C@]2(O)C1=O [COL-3, 6-demethyl-6-deoxy-4-de(dimethylamino)tetracycline] | not significantly different | did not inhibit; also recorded: no effect | occurred in both the presence and absence of COL-3 | 1 | inhibited | no further development | do not develop | about 1.0 μg/ml |  |
| CN(C)[C@@H]1C(O)=C(C(N)=O)C(=O)[C@@]2(O)C(O)=C3C(=O)c4c(O)cccc4[C@@](C)(O)[C@H]3C[C@@H]12 [tetracycline] |  |  |  |  |  |  |  |  | prevented death |
